Data: publication PMC12293604, “Anticancer Effect of Nature-Inspired Indolizine-Based Pentathiepines in 2D and 3D Cellular Model” (Cancers, 2025)

Assays:
[1] = system: MCF7; assay: MTT cell viability assay, MCF7; type: cell-based; details: Homo sapiens, MCF7, 48h treatment, mean ± S.D.
Experimental: (§1) The human cancer cell lines MCF7 (HTB-22, breast adenocarcinoma), MDA-MB-231 (HTB-26, breast adenocarcinoma), HCT116 (CCL-247, colorectal carcinoma), and A549 (CRM-CCL-185, lung carcinoma) were obtained from the American Type Culture Collection (ATCC, Manassas, VA, USA). The fibroblast cell line CR9, kindly provided by Dr. Guven, was maintained in ISCOVE medium. HCT116 cells were cultured in Dulbecco’s Modified Eagle Medium (DMEM), whereas A549, MCF7, and MDA-MB-231 cells were maintained in Roswell Park Memorial Institute 1640 (RPMI-1640) medium. All media were supplemented with 10% fetal bovine serum (FBS), 1% L-glutamine, and 0.5% antibiotic mixture (penicillin, streptomycin, and neomycin). Cell cultures were maintained at 37 °C in a humidified atmosphere with 5% CO2, following standard culture protocols. Additionally, for HCT116 cells, the culture medium was further supplemented with 1% sodium pyruvate and 1% non-essential amino acids.
(§2) To evaluate the impact of the tested PTEs on cell viability, a colorimetric MTT assay was performed as previously described. Briefly, cells were seeded in 96-well microplates at initial densities of 5 × 10^3 cells per well for the MCF7, MDA-MB231, and A549 cell lines, and 4 × 10^3 cells per well for HCT116 cells. After an initial 24 h incubation period to allow for cell attachment and growth, the cultures were treated with different concentrations of PTEs (0.25–20 µM). Following 48 h of treatment, 50 μL of MTT solution (2 mg/mL in PBS) was added to each well, and the plates were incubated at 37 °C for 3 h to allow for MTT reduction by metabolically active cells. The resulting formazan crystals were solubilized, and cell viability was measured by recording the absorbance at 570 nm using an iMark Microplate Reader (BIORAD, Segrate, Milan, Italy). The cytotoxic effectiveness of the compounds was expressed as IC50 values, which were calculated from dose–response curves fitted with non-linear regression analysis using Calcusyn version 1.1.4. software (Biosoft, Cambridge, UK).

[2] = system: A549; assay: MTT cell viability assay, A549; type: cell-based; details: Homo sapiens, A549, 48h treatment, mean ± S.D.
Experimental: as §1, §2

[3] = system: HCT116; assay: MTT cell viability assay, HCT116; type: cell-based; details: Homo sapiens, HCT-116, HCT116, 48h treatment, mean ± S.D.
Experimental: as §1, §2

[4] = system: MDA-MB231; assay: MTT cell viability assay, MDA-MB231; type: cell-based; details: Homo sapiens, MDA-MB-231, MDA-MB231, 48h treatment, mean ± S.D.
Experimental: as §1, §2

[5] = system: MCF7, MDA-MB231, A549 and HCT116 cells; assay: Intracellular ROS levels (DCFH-DA), summary across cell lines; type: cell-based, human; details: 48 h at IC50 concentration, four cell lines
Experimental: (§3) Intracellular ROS levels were quantified using 2′,7′-dichlorodihydrofluorescein diacetate (DCFH-DA) as a fluorescent probe. After 48 h of treatment, cells were collected, rinsed with PBS, and incubated in a PBS solution containing 10 µM DCFH-DA. Following incubation, fluorescence corresponding to oxidized fluorescein was measured using a 530 nm band-pass filter. ROS production was expressed in arbitrary units based on the median fluorescence intensity (MFI).

[6] = system: CR9 human fibroblast cells; assay: MTT cell viability assay, CR9 fibroblasts; type: cell-based; details: 48h treatment, mean ± S.D.
Experimental: as §1, §2

[7] = system: HCT116; assay: Necrotic cell death, flow cytometry (PI without fixation), HCT116; type: cell-based, human; details: HCT116, 48 h treatment at IC50 concentration
Experimental: (§4) The potential of the tested PTE derivatives to induce apoptotic and/or necrotic cell death, as well as to cause alterations in cell cycle distribution, was evaluated following a 48 h exposure to their respective IC50 concentrations, using flow cytometric analysis as previously described. Briefly, the indicated cell lines were seeded in 12-well plates (3 × 10^5 cells/well) and treated 24 h post-seeding. At the end of the treatment period, following harvesting, cells were washed with PBS and fixed in ice-cold 70% ethanol at −20 °C for a minimum duration of 45 min, to assess apoptotic cell death and perform cell cycle analysis. After fixation, cells were washed again with PBS and stained with a propidium iodide (PI)/RNase solution (50 µg/mL PI and 30 U/mL RNase) in PBS for 15 min at room temperature.
(§5) Flow cytometric analysis was performed using a FACScalibur flow cytometer (Becton Dickinson, Milan, Italy), equipped with a 15 mW, 488 nm air-cooled argon ion laser. Data were acquired and analyzed with CellQuestPRO version 5.1 software. PI fluorescence was detected using a 575 nm band-pass filter. The percentage of apoptotic cells was determined by identifying sub-G1 peaks in monoparametric histograms obtained in logarithmic mode. For cell cycle distribution, PI fluorescence was also analyzed with monoparametric histograms, but data were collected in linear mode.
Necrotic cell death was assessed by omitting the ethanol fixation step from the staining protocol, thereby enabling propidium iodide (PI) to penetrate membrane-compromised cells, indicative of necrosis.

[8] = system: HCT116; assay: Cell cycle distribution, flow cytometry, HCT116; type: cell-based, human; details: HCT116, 48 h at equitoxic (IC50) concentrations
Experimental: as §4, §5

[9] = system: MCF7, MDA-MB231, A549 and HCT116 cell lines; assay: Hydrosulfide production (DNS-N3 probe), summary across cell lines; type: cell-based, human; details: 48 h at IC50 concentration, all cell lines
Experimental: (§6) PTEs-induced sulfide production was evaluated using dansyl azide (DNS-N3) as a probe. DNS-N3 is non-fluorescent itself, while in the presence of hydrosulfide, the azide transforms into the dansyl amide and fluorescence is switched on. After 48 h of treatment, cells were harvested, washed with PBS, and incubated in a PBS solution containing 200 μM DNS-N3. Following 30 min incubation at 37 °C, fluorescence increase was measured through a 575 nm band-pass filter. The levels of hydrosulfide production were assessed and reported in arbitrary units, calculated from the median fluorescence intensity (MFI) measurements. For all flow cytometric analyses, untreated cells (i.e., not exposed to PTE compounds) were used as negative controls.

[10] = system: MDA-MB231; assay: Intracellular ROS levels (DCFH-DA), MDA-MB231; type: cell-based, human; details: MDA-MB231, 48 h at IC50 concentration, vs. CTR
Experimental: as §3

[11] = system: MDA-MB231; assay: Cell cycle distribution, flow cytometry, MDA-MB231; type: cell-based, human; details: MDA-MB231, 48 h at equitoxic (IC50) concentrations
Experimental: as §4, §5

[12] = system: MCF7, MDA-MB231, A549 and HCT116 cells; assay: Apoptotic cell death, flow cytometry (sub-G1, PI); type: cell-based, human; details: 48 h treatment at IC50 concentration, vs. untreated controls
Experimental: as §4, §5

[13] = system: MCF7, MDA-MB-231, A549, and HCT116 cells; assay: MTT cell viability assay, summary across the cell line panel; type: cell-based, human; details: 48 h treatment, across tested cell lines
Experimental: The fibroblast cell line CR9, kindly provided by Dr. Guven, was maintained in ISCOVE medium. […] All media were supplemented with 10% fetal bovine serum (FBS), 1% L-glutamine, and 0.5% antibiotic mixture (penicillin, streptomycin, and neomycin). Cell cultures were maintained at 37 °C in a humidified atmosphere with 5% CO2, following standard culture protocols. Additionally, for HCT116 cells, the culture medium was further supplemented with 1% sodium pyruvate and 1% non-essential amino acids.
as §2, with “Following 48 h of treatment, 50 μL of MTT solution (2 mg/mL in PBS) was added to each well, and the plates were incubated at 37 °C for 3 h to allow for MTT reduction by metabolically active cells.” left out

[14] = system: MCF7; assay: Intracellular ROS levels (DCFH-DA), MCF7; type: cell-based, human; details: MCF7, 48 h at IC50 concentration, vs. CTR
Experimental: as §3

[15] = system: HCT116; assay: Hydrosulfide production (DNS-N3 probe), HCT116; type: cell-based, human; details: HCT116, 48 h at IC50 concentration
Experimental: as §6

[16] = system: MCF7; assay: Cell cycle distribution, flow cytometry, MCF7; type: cell-based, human; details: MCF7, 48 h at equitoxic (IC50) concentrations
Experimental: as §4, §5

[17] = system: A549; assay: Cell cycle distribution, flow cytometry, A549; type: cell-based, human; details: A549, 48 h at equitoxic (IC50) concentrations
Experimental: as §4, §5

[18] = system: HCT116; assay: Intracellular ROS levels (DCFH-DA), HCT116; type: cell-based, human; details: HCT116, 48 h at IC50 concentration, vs. CTR
Experimental: as §3

Row | SMILES | IC50 [1] [µM] | IC50 [2] [µM] | IC50 [3] [µM] | IC50 [4] [µM] | ROS production (ranking in words) [5] | IC50 [6] [µM] | necrosis relative to apoptosis [7] | cell cycle shift: decrease in the G0/G1 phase population with G2/M phase accumulation [8] | sulfide production (in words) [9] | increase in ROS production [10] | cell cycle shift: decrease in the G0/G1 phase population with G2/M phase accumulation [11] | apoptotic cell death [12] | cytotoxic potency (in words) [13] | increase in ROS production [14] | sulfide increase [15] | cytotoxic potency (in words) ([13]; listed as 2^PG) | cytotoxic potency (in words) ([13]; listed as 2^Ph) | cell cycle shift: decrease in the G0/G1 phase population with G2/M phase accumulation [16] | cell cycle shift: decrease in the G0/G1 phase population with G2/M phase accumulation [17] | increase in ROS production [18]
1 | OCCOc1c2c(c3ccccn13)SSSSS2 [2^Gly] | 1.13 ± 0.02 | 0.79 ± 0.06 | 0.603 ± 0.04 | 0.3 ± 0.03 | better ROS producers | 1.61 ± 0.13 | higher levels of necrosis relative to apoptosis | triggered similar effects | most potent inducers of sulfide production | statistically significant | triggered similar effects | most potent inducers of apoptosis | highest cytotoxic potency | – | – | – | – | – | – | –
2 | Cc1c2c(c3ccccn13)SSSSS2 [2^Me] | 4.77 ± 0.14 | 2.54 ± 0.27 | 2.27 ± 0.34 | 1.45 ± 0.04 | better ROS producers | 7.91 ± 0.32 | higher levels of necrosis relative to apoptosis | triggered similar effects | most potent inducers of sulfide production | statistically significant | triggered similar effects | most potent inducers of apoptosis | noteworthy efficacy | statistically significant | did not induce sulfide increase | highest cytotoxic potency | lowest cytotoxic activity | – | – | –
3 | CCOc1c2c(c3ccccn13)SSSSS2 [compound 1] | 2.68 ± 0.31 | 1.54 ± 0.08 | 0.83 ± 0.04 | 0.63 ± 0.04 | better ROS producers | 7.32 ± 0.15 | – | induced this characteristic cell cycle shift | most potent inducers of sulfide production | statistically significant | induced this characteristic cell cycle shift | most potent inducers of apoptosis | noteworthy efficacy | statistically significant | – | – | – | induced this characteristic cell cycle shift | induced this characteristic cell cycle shift | statistically significant

Continued by falling IC50 [1], values first:

Row | IC50 [1] [µM] | IC50 [2] [µM] | IC50 [3] [µM] | IC50 [4] [µM] | SMILES | ROS production (ranking in words) [5] | IC50 [6] [µM] | necrosis relative to apoptosis [7] | cell cycle shift: decrease in the G0/G1 phase population with G2/M phase accumulation [8] | sulfide production (in words) [9] | increase in ROS production [10] | cell cycle shift: decrease in the G0/G1 phase population with G2/M phase accumulation [11] | apoptotic cell death [12] | cytotoxic potency (in words) [13] | increase in ROS production [14] | sulfide increase [15] | cytotoxic potency (in words) ([13]; listed as 2^PG) | cytotoxic potency (in words) ([13]; listed as 2^Ph) | cell cycle shift: decrease in the G0/G1 phase population with G2/M phase accumulation [16] | cell cycle shift: decrease in the G0/G1 phase population with G2/M phase accumulation [17] | increase in ROS production [18]
4 | 4.5 ± 0.51 | 1.5 ± 0.21 | 3.5 ± 0.6 | 17.8 ± 1.96 | COc1cccc2c1C(=O)c1c(O)c3c(c(O)c1C2=O)C[C@@](O)(C(=O)CO)C[C@@H]3O[C@H]1C[C@H](N)[C@H](O)[C@H](C)O1 [doxo, doxorubicin, reference compound] | – | – | – | – | – | – | – | – | – | – | – | – | – | – | – | –
5 | 3.21 ± 0.13 | 3.22 ± 0.39 | 1.59 ± 0.15 | 0.63 ± 0.75 | CCOc1c2c(c3ccc([N+](=O)[O-])cn13)SSSSS2 [3^NO2] | – | 2.87 ± 0.14 | – | – | – | statistically significant | – | most potent inducers of apoptosis | noteworthy efficacy | statistically significant | – | – | – | – | – | –
6 | 1.7 ± 0.03 | 1.03 ± 0.04 | 0.74 ± 0.06 | 0.39 ± 0.04 | CCOc1c2c(c3ccc(C=O)cn13)SSSSS2 [3^CHO, 6-ethoxy-9-formyl-[1,2,3,4,5]pentathiepino [6,7-a]indolizine] | better ROS producers | 1.9 ± 0.12 | higher levels of necrosis relative to apoptosis | – | most potent inducers of sulfide production | statistically significant | exerted this effect exclusively in MDA-MB231 cells | most potent inducers of apoptosis | highest cytotoxic potency | statistically significant | – | – | – | – | – | –
